US9757320B2, “Oral care composition” (Colgate-Palmolive Company, priority 2012, dated 2017)

Assays:
A. viscuosus = assay: Minimum inhibitory concentration test: optical density at 610 nm of A. viscuosus in tryptic soy broth, 96 well plate; format: cell-based; conditions: 37° C. for 18 hours
Description: Stock solutions of the zinc ascorbyl phosphate of Example 1, ascorbyl phosphate, zinc oxide, and the zinc-lysine complex were each prepared in water. The concentration of active ingredient in each solution was 0.1 M. Aliquots of each test solution (200 μL) were placed in the first row of a 96 well plate. Serial dilutions of the stock solutions were prepared on the plate by mixing the stock solutions with tryptic soy broth on a 1:1 basis. The concentrations of active ingredient prepared on this basis varied from 50 mM to 0.00488 mM.
A solution of A. viscuosus with an optical density of 0.2 at 610 nm was prepared. Aliquots of the A. viscuosus solution (100 μL) were then added to each test well. Four control wells containing TSB buffer and A. viscuosus solution were prepared. Four blank wells containing TSB buffer alone were also prepared.
The plate was then incubated at 37° C. for 18 hours. The optical density of each well at 610 nm was then recorded using a plate reader.

[1] = cited from earlier work
[2] = 50 mM active ingredient, lower reading = improved antibacterial effect

| Compound | optical density reading (A. viscuosus; 0.005 mM active ingredient) | optical density reading (A. viscuosus; 0.00977 mM active ingredient) | optical density reading (A. viscuosus; 0.195 mM active ingredient) | optical density reading (A. viscuosus; 0.391 mM active ingredient) | optical density reading (A. viscuosus; 0.781 mM active ingredient) | optical density reading (A. viscuosus; 1.563 mM active ingredient) | optical density reading (A. viscuosus; 3.125 mM active ingredient) | optical density reading (A. viscuosus; 6.25 mM active ingredient) | optical density reading (A. viscuosus; 12.5 mM active ingredient) | optical density reading (A. viscuosus; 25 mM active ingredient) | optical density reading (A. viscuosus; [2]) | solubility under aqueous conditions [1] |
| --- | --- | --- | --- | --- | --- | --- | --- | --- | --- | --- | --- | --- |
| CCCCCCCCCCCCCCCC(=O)OC[C@H](O)[C@H]1OC(=O)C(O)=C1O [Ascorbyl Palmitate] | 0.70 | 0.71 | 0.71 | 0.69 | 0.70 | 0.70 | 0.68 | 0.69 | 0.72 | 0.68 | 0.64 | – |
| [O]=[Zn] [Zinc Oxide, zinc oxide] | 0.68 | 0.68 | 0.67 | 0.66 | 0.60 | 0.45 | 0.33 | 0.29 | 0.40 | 0.65 | 1.55 | poorly soluble |
| zinc-lysine complex | 0.68 | 0.71 | 0.69 | 0.65 | 0.58 | 0.44 | 0.34 | 0.15 | 0.20 | 0.35 | 0.56 | – |
